The values below come from US8476302B2, “α-ketoamide derivatives useful endothelial lipase inhibitors” (Janssen Pharmaceutica N.V., priority 2010, dated 2013).

Structures are written as SMILES. Where “and” joins values, the source holds several entries; their conditions need not be identical. Equal values may be shown once.

The target of experiment [1] is T1, human endothelial lipase (EL) (Homo sapiens, UniProt Q9Y5X9).
T1 construct: host or cells: cells expressing human endothelial lipase
T1 sequence (Q9Y5X9 21-500): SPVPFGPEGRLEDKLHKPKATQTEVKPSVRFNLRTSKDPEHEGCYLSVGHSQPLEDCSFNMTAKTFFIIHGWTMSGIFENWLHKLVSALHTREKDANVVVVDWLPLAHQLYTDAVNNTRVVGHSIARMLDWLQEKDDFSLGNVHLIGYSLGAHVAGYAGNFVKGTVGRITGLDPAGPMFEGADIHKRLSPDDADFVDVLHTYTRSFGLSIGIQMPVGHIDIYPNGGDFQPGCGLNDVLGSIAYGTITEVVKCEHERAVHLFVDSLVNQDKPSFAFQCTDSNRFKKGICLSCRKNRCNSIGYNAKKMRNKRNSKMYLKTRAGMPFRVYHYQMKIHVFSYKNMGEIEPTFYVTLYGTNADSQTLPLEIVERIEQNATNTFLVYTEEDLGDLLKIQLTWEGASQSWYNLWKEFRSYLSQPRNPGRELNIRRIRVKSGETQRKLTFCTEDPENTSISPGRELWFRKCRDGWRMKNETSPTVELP
Nature of the experiment: Endothelial Lipase Assay, cell surface lipase activity (human). The format is cell-based. The note with it: cells expressing human EL, PLA1 substrate 10 μM, fluorescence reaction rate; several values in a cell are repeat determinations. The protocol:
(§1) Endothelial Lipase Assay (Human/Mouse)
(§2) To assay for cell surface lipase activity, cells expressing human endothelial lipase (EL) or LPL were plated in CellBIND® 384-well plates (Corning, Lowell, Mass.) in 25 μL serum free medium at a density of 2000 cells/well. After 18-24 hours incubation at 37° C., the medium was removed and replaced with 15 μL assay buffer [Hank's Buffered Saline Solution with 25 mM HEPES pH 7.2] and 15 μL PLA1 for a final concentration of 10 μM using a Multidrop reagent dispenser. Fluorescence signal was monitored for 30 min at 37° C. on a Safire II plate reader in kinetic mode (60 cycles, kinetic interval: 30 seconds) with an excitation wavelength of 490 nm and an emission wavelength of 515 nm. Linear regression of the fluorescence intensity collected from 480 to 1500 seconds was used to calculate the reaction rate (the slope) and the slopes were used to calculate IC50 values where appropriate. The amount of BODIPY-labeled product generated was calculated at the 30 min time point as determined from standard curve analysis of purified BODIPY FL C5. In all studies using the inhibitor Ebelactone B, consistent results were obtained when it was dissolved as a stock in DMSO, immediately before use.

Another experiment has as its target T2, Mouse EL (Mus musculus, UniProt Q9WVG5).
T2 construct: host or cells: not described for mouse EL
T2 sequence (Q9WVG5 21-500): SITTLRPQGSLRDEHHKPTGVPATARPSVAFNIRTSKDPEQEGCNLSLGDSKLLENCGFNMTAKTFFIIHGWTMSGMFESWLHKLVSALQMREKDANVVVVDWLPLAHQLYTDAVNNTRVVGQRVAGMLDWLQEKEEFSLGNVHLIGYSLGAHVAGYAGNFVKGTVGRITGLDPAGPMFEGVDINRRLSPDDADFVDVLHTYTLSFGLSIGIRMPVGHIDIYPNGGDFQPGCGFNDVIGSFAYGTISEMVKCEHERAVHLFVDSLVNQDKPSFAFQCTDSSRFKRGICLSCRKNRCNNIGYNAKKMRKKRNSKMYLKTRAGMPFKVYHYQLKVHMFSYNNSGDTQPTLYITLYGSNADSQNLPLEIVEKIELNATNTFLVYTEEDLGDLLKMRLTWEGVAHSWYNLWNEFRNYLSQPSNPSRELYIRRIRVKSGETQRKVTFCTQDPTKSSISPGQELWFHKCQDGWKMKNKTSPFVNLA
Nature of the experiment: Endothelial Lipase Assay, cell surface lipase activity (mouse). The format is cell-based. The note with it: PLA1 substrate 10 μM, fluorescence reaction rate, several values in a cell are repeat determinations. How it is done:
as §1, §2

For orientation: IC50 means the concentration needed to halve the response being measured. Read a high IC50 as weaker potency in that assay. Consider `COC(=O)c1cccc(COc2ccc(-c3nnc(CNC(=O)C(=O)CCCCCCc4ccccc4)s3)cc2)c1` [Compound 137], for which the IC50 in experiment [1] came to 93 nM; against Mouse EL it was 37 nM.

With `O=C(CCCCCCc1ccccc1)C(=O)NCc1nnc(-c2ccc(OCn3nnc4ccccc43)cc2)o1` [Compound 104], the 50% inhibitory concentration (IC50) in experiment [1] came out at 230 nM; against Mouse EL, 181 nM.

For the molecule `O=C(CCCCCCc1ccccc1)C(=O)NCc1nnc(-c2ccccc2Cl)o1` [Compound 5], the midpoint of inhibition in experiment [1], the IC50, lay at 663 nM.

Regarding `O=C(CCCCCOc1cccc(F)c1)C(=O)NCc1nnc(-c2ccccc2)o1` [Compound 53], the results for the IC50 (in experiment [1]; at Mouse EL) were 4740 nM and 5910 nM, respectively.

As for `O=C(CCCCCCc1ccc(F)nc1)C(=O)NCc1nnc(-c2ccc(OCc3cccc(F)c3)cc2)s1` [Compound 165], the half-maximal inhibitory concentration (IC50) (in experiment [1]; at Mouse EL) was 48 nM throughout.

On to `O=C(CCCCCCc1ccccc1)C(=O)NCc1nnc(-c2ccccc2)o1` [Compound 1, 2-oxo-8-phenyl-N-((5-phenyl-1,3,4-oxadiazol-2-yl)methyl)octanamide], for which the IC50 is 952 nM and 836 nM and 690 nM in experiment [1]; 1050 nM and 864 nM and 708 nM at Mouse EL.

With `O=C(CCCCCOc1cccc(F)c1)C(=O)NCc1nnc(-c2ccc(Oc3cccc(Cl)c3)cc2)o1` [Compound 67], the IC50 is 640 nM in experiment [1] and 648 nM on Mouse EL.

As to `O=C(CCCCCNc1ncccn1)C(=O)NCc1nnc(-c2ccccc2)o1` [Compound 148], the IC50 came out at 12300 nM in experiment [1] and 14700 nM against Mouse EL.

Consider `Cc1ccc(-c2nnc(CNC(=O)C(=O)CCCCCCc3ccccc3)o2)cc1` [Compound 25], for which the IC50 in experiment [1] is 353 nM and 319 nM and 468 nM; against Mouse EL, 333 nM and 235 nM and 269 nM.

Consider `O=C(CCCCCc1ccccc1)C(=O)NCc1nnc(-c2ccc3ccccc3c2)o1` [Compound 34], for which the figures for the IC50 (in experiment [1]; at Mouse EL) were 904 nM and 473 nM, respectively.

With `O=C(CCCCCc1ccc(-c2ccccc2)cc1)C(=O)NCc1nnc(-c2ccc3ccccc3c2)o1` [Compound 36], the IC50 in experiment [1] was determined as 10200 nM; on Mouse EL it was 6600 nM.

Regarding `COc1cccc(-c2nnc(CNC(=O)C(=O)CCCCCCc3ccccc3)o2)c1` [Compound 3], the IC50 in experiment [1] is 1100 nM.

`N#Cc1cccc(COc2ccc(-c3nnc(CNC(=O)C(=O)CCCCCCc4ccccc4)s3)cc2)c1` [Compound 144]: the IC50 was found to be 421 nM in experiment [1] and 249 nM against Mouse EL.

Consider `O=C(CCCCCCc1ccccc1)C(=O)NCc1nnc(-c2ccc(OCc3ccccc3)cc2)s1` [Compound 129], for which the IC50 in experiment [1] came out at 325 nM; against Mouse EL, 264 nM.

`COc1cccc(C#CCCCC(=O)C(=O)NCc2nnc(-c3ccccc3)o2)c1` [Compound 40]: the concentration for half-maximal inhibition (IC50) (in experiment [1]; at Mouse EL) was 33300 nM each time.

For the molecule `O=C(CCCCCOc1ccccc1)C(=O)NCc1nnc(-c2ccccc2)o1` [Compound 46], the IC50 came to 8750 nM in experiment [1] and 6510 nM against Mouse EL.

For `O=C(CCCCCOc1cccc(F)c1F)C(=O)NCc1nnc(-c2ccc(Oc3ccccc3)cc2)o1` [Compound 102], the IC50 in experiment [1] was found to be 1970 nM; against Mouse EL, 809 nM.

On to `Cc1ccc(-c2nnc(CNC(=O)C(=O)CCCCCc3ccccc3)o2)cc1` [Compound 35], for which the IC50 stood at 1130 nM in experiment [1] and 994 nM against Mouse EL.

On to `Cn1ccnc1COc1ccc(-c2nnc(CNC(=O)C(=O)CCCCCCc3ccccc3)o2)cc1` [Compound 78], for which the IC50 in experiment [1] amounted to 944 nM; at Mouse EL, 775 nM.

On to `O=C(CCCCCc1ccc(F)cc1)C(=O)NCc1nnc(-c2ccc3ccccc3c2)o1` [Compound 38], for which the results for the IC50 (in experiment [1]; on Mouse EL) were 613 nM and 475 nM, respectively.

In the case of `O=C(CCCCCOc1cc(F)cc(F)c1)C(=O)NCc1nnc(-c2ccccc2)s1` [Compound 108], the IC50 in experiment [1] was determined as 626 nM; at Mouse EL it was 1170 nM.

For `O=C(CCCCCCc1ccccc1)C(=O)NCc1nnc(-c2ccc(NCc3ccccc3)cc2)o1` [Compound 116], the half-maximal inhibitory concentration (IC50) in experiment [1] is 325 nM; against Mouse EL it was 289 nM.

Turning to `O=C(CCCCCCc1ccccc1)C(=O)NCc1nnc(-c2cc(F)cc(F)c2)o1` [Compound 26], the 50% inhibitory concentration (IC50) in experiment [1] came out at 668 nM; on Mouse EL, 436 nM.

`O=C(CCCCCCc1ccccc1)C(=O)NCc1nnc(-c2cccnc2)o1` [Compound 177] had an IC50 in experiment [1] of 5220 nM.

With `O=C(CCCCCOc1ccc(F)cc1F)C(=O)NCc1nnc(-c2ccc(OCc3ccccc3)cc2)o1` [Compound 99], the results for the IC50 (in experiment [1]; on Mouse EL) were 2150 nM and 1050 nM, respectively.

Regarding `O=C(CCCCCCc1ccccc1)C(=O)NCc1nnc(-c2ccc(OCc3ccc(Cl)cc3)cc2)o1` [Compound 77], the IC50 (in experiment [1]; against Mouse EL) was 33300 nM each time.

As to `COc1ccc(COc2ccc(-c3nnc(CNC(=O)C(=O)CCCCCCc4ccccc4)o3)cc2)cc1` [Compound 81], the IC50 in experiment [1] came out at 11500 nM; on Mouse EL, 8340 nM.

In the case of `O=C(CCCCCCc1ccccc1)C(=O)NCc1nnc(-c2ccc(OCc3cc[n+]([O-])cc3)cc2)s1` [Compound 156], the IC50 was 397 nM in experiment [1] and 383 nM on Mouse EL.

Regarding `O=C(CCCCCOc1cc(F)cc(F)c1)C(=O)NCc1nnc(-c2ccc(OCc3ccccc3)cc2)o1` [Compound 100], the IC50 in experiment [1] came out at 1330 nM; at Mouse EL it was 551 nM.

With `O=C(CCCCCCc1ccccc1)C(=O)NCc1nnc(-c2ccc(OCc3cccc(F)c3)cc2)s1` [Compound 128, N-((5-(4-((3-fluorobenzyl)oxy)phenyl)-1,3,4-thiadiazol-2-yl)methyl)-2-oxo-8-phenyloctanamide], the IC50 came to 129 nM in experiment [1] and 87 nM against Mouse EL.

Take `O=C(CCCCCCc1ccccc1)C(=O)NCc1nnc(-c2ccc(OCc3cccnc3)cc2)o1` [Compound 82]: the IC50 was found to be 108 nM in experiment [1] and 133 nM against Mouse EL.

As to `CC(=O)Nc1ccc(CCCCCCC(=O)C(=O)NCc2nnc(-c3ccc(OCc4cccc(F)c4)cc3)s2)cn1` [Compound 157], the IC50 in experiment [1] stood at 511 nM; at Mouse EL, 1280 nM.

`O=C(CCCCCOc1cccc(F)c1)C(=O)NCc1nnc(-c2ccc3c(c2)Oc2ccccc2O3)o1` [Compound 62]: the IC50 in experiment [1] came out at 5200 nM; at Mouse EL, 2720 nM.

As to `COc1cccc(OCCCCCC(=O)C(=O)NCc2nnc(-c3ccccc3)o2)c1` [Compound 63], the IC50 in experiment [1] came out at 5450 nM; against Mouse EL, 6120 nM.

As for `O=C(CCCCCCc1ccccc1)C(=O)NCc1nnc(-c2ccc(F)cc2)o1` [Compound 15], the IC50 is 735 nM in experiment [1] and 1020 nM at Mouse EL.

Molecule `COc1ccc(-c2nnc(CNC(=O)C(=O)CCCCCCc3ccccc3)o2)cc1` [Compound 4] gave an IC50 in experiment [1] of 640 nM.

Consider `N#Cc1ccc(CCCCCCC(=O)C(=O)NCc2nnc(-c3ccccc3)o2)cc1` [Compound 44], for which the IC50 turned out to be 951 nM in experiment [1] and 641 nM at Mouse EL.

In the case of `O=C(CCCCCCc1cccc(F)c1)C(=O)NCc1nnc(-c2ccc3ccccc3c2)o1` [Compound 28], the figures for the IC50 (in experiment [1]; against Mouse EL) were 224 nM and 127 nM, respectively.

Take `O=C(CCCCCOc1c(F)cccc1F)C(=O)NCc1nnc(-c2ccc(OCc3ccccc3)cc2)o1` [Compound 101]: the results for the IC50 (in experiment [1]; on Mouse EL) were 5480 nM and 19900 nM, respectively.

Turning to `COc1ccc(C#CCCCC(=O)C(=O)NCc2nnc(-c3ccccc3)o2)cc1` [Compound 41], the IC50 in experiment [1] is 27200 nM; against Mouse EL, 24100 nM.

For `O=C(CCCCCCc1ccccc1)C(=O)NCc1nnc(-c2ccccc2)[nH]1` [Compound 11], half-maximal inhibition in experiment [1] (IC50) was put at 10400 nM.

In experiment [1], `COc1ccccc1-c1nnc(CNC(=O)C(=O)CCCCCCc2ccccc2)o1` [Compound 6] came in with an IC50 of 2650 nM.

In experiment [1], `O=C(CCCCCCc1ccccc1)C(=O)NCc1nnc(-c2ccc3c(c2)OCO3)o1` [Compound 7] yielded a concentration for half-maximal inhibition (IC50) of 457 nM.

On to `O=C(CCCCCNc1cccc(F)n1)C(=O)NCc1nnc(-c2ccccc2)o1` [Compound 171], for which 33000 nM corresponded to half-maximal inhibition in experiment [1] (IC50).
